Reference: US5017723A, “Substituted ethylamines, their preparation process, their use as medicine and their synthesising agents” (Jouveinal S.A., priority 1990, dated 1991)
Structures can show the parent of a compound that is named as a salt. Where two headings read alike, the source gives them in different places.

Tested on: convulsion induced by picrotoxine in mice
Assay: Protection against picrotoxine-induced convulsion (suppression of the tonic extension phase)
Assay type: in vivo, male Swiss mice
Conditions: for responders at 50 mg/kg / responders at 100 mg/kg / ED50: Mus musculus; for responders at 50 mg/kg: 0.5 h, read-out: i.p.: % prot. (percentage of protected animals), 50 mg/kg i.p., picrotoxine 24 mg/kg i.p. 30 min later; for responders at 100 mg/kg: 1 h, read-out: p.o.: % prot. (percentage of protected animals), 100 mg/kg p.o., picrotoxine 24 mg/kg i.p. 60 min later; for i.p.: % prot. (percentage of protected animals): 50 mg/kg i.p., picrotoxine 24 mg/kg i.p. 30 min later
Excerpt: The psychotropic properties of the compounds have been determined by the protection of the induced convulsion by picrotoxine for mice, which is achieved by the method derived from that of Krall et al., "Epilepsia", 1978, 19, p. 409-428.
The administration of picrotoxine caused a convulsive crisis in the animal characterised by a myoclonic extension syndrome followed by the extension of the limbs causing the animal to die. Certain substances, particularly those active on the complex GABA/benzodiazepines/Cl-ionophore makes it possible to protect the animals from this convulsive crisis.
In practice the study is carried out on batches of 10 male "Swiss" mice weighing approximately 20 g, which are administered with the product to be studied in aqueous solution either by intraperitoneal route (i.p.) at the rate of 50 mg/kg and in a volume of 0.2 ml of solution per animal, or by oral route (p.o) in a volume of 2.0 ml of solution per animal.
An injection of a solution of picrotoxine at the rate of 24 mg/kg in a volume of 0.2 ml per animal is then administered by interperitoneal route, either 30 minutes after administering the product by interperitoneal route or 60 minutes after administering the product by oral route. The dose of the product injected causing a clonic crisis, which results in untreated animals dying. The suppression of the extension tonic phase in the animals treated under the conditions of the test is observed. The results are expressed:
either in percentages of protected animals of this phase to the reaction of 50 mg/kg of the compound of the study administered by i.p. route or 100 mg/kg by p.o route,
or in DE50 for each of these routes, which is the efficient dosage of the test compound expressed in mg/kg protecting 50% of the animals of this extension phase. The significant value of the results being generally indicated in the following manner:
* Significant result at p<0.05
** Significant result at p<0.01
*** Significant highly significant at p<0.001.

[1] = ip, * p<0.05, ** p<0.01, *** p<0.001
[2] = po, * p<0.05, ** p<0.01, *** p<0.001
[3] = * p<0.05, ** p<0.01, *** p<0.001

Structure (SMILES)	responders at 50 mg/kg [1] [%]	responders at 100 mg/kg [2] [%]	further results
CCC(C[C@@H]1C[C@H]1c1ccccc1)(c1cc(OC)c(OC)c(OC)c1)N(C)C (relative stereo) [Example 54, trans N,N-dimethyl-a-ethyl-a-(2-phenyl-1-cyclopropylmethyl)-3,4,5-trimethoxybenzylamine]	70	–	–
CCC(C[C@@H]1C[C@H]1c1ccccc1)(c1ccccn1)N(C)C (relative stereo) [Example 58, trans N,N-dimethyl-a-ethyl-a-(2-phenyl-1-cyclopropylmethyl)-(2-pyridyl)methanamine]	70	80	–
CCC(C[C@@H]1C[C@H]1c1ccccc1)(c1ccco1)N(C)C (relative stereo) [Example 60, trans N,N-dimethyl-a-ethyl-a-(2-phenyl-1-cyclopropylmethyl)-2-furfurylamine]	80	60	–
CCC(C[C@@H]1C[C@H]1c1ccccc1)(c1cccs1)N(C)C (relative stereo) [Example 63, trans N,N-dimethyl-a-ethyl-a-(2-phenyl-1-cyclopropylmethyl)-2-thienylmethylmaine]	60	50	–
CCC(C[C@@H]1C[C@H]1c1ccccc1)(c1ccsc1)N(C)C (relative stereo) [Example 68, trans N,N-dimethyl-a-ethyl-a-(2-phenyl-1-cyclopropylmethyl)-3-trienylmethylamine]	100	–	–
CCC(N)(CC=Cc1ccccc1)c1ccccc1 (single isomer, unassigned) [Example 16A, (-) tartrate of (+) a-cinnamyl-a-ethyl-benzylamine]	90	100	–
CCC(N)(CC=Cc1ccccc1)c1ccccc1 (single isomer, unassigned) [Example 16B, (+) tartrate of (-)a-cinnamyl-a-ethyl benzylamine]	–	–	i.p.: % prot. (percentage of protected animals) [3]: 100%; p.o.: % prot. (percentage of protected animals) (100 mg/kg p.o., picrotoxine 24 mg/kg i.p. 60 min later, * p<0.05, ** p<0.01, *** p<0.001): 100%
CCC(N)(CC=Cc1ccccc1)c1ccc(Cl)cc1 (single isomer, unassigned; (+)) [Example 17A, (+) a-cinnamyl-a-ethyl-p.chlorobenzylamine]	80	50	–
CCC(CC=Cc1ccccc1)(NC)c1ccccc1 (single isomer, unassigned; (+)) [Example 29, (+) a-cinnamyl-a-ethyl-N-methyl benzylamine]	–	–	i.p.: % prot. (percentage of protected animals) [3]: 100%
CCC(CC=Cc1ccccc1)(c1ccccc1)N(C)C (single isomer, unassigned; (+)) [Example 50, (+) a-cinnamyl-N,N-dimethyl-a-ethyl-benzylamine]	–	–	i.p.: % prot. (percentage of protected animals) [3]: 100%
CCC(CC=Cc1ccccc1)(NC)c1ccccc1 (single isomer, unassigned; (-)) [Example 28, (-) a-cinnamyl-a-ethyl-N-methyl benzylamine]	100	100	–
CCC(CC=Cc1ccccc1)(c1ccccc1)N(C)C (single isomer, unassigned; (-)) [Example 49, (-)a-cinnamyl-N,N-dimethyl-a-ethylbenzylamine]	100	100	–
CCC(N)(CC=Cc1ccccc1)c1ccccc1 (stereo not drawn) [Example 3, a-cinnamyl-a-ethyl-benzylamine]	80	100	–
CCC(N)(CC=Cc1ccccc1)c1ccc(Cl)cc1 (stereo not drawn) [Example 4, a-cinnamyl-a-ethyl-p.chlorobenzylamine]	60	–	–
CCC(N)(CC=Cc1ccccc1)c1ccc(Cl)c(Cl)c1 (stereo not drawn) [Example 5, a-cinnamyl-a-ethyl-3,4 dichlorobenzylamine]	50	–	–
CCC(N)(CC=Cc1ccccc1)c1ccc(C)cc1 (stereo not drawn) [Example 6, a-cinnamyl-a-ethyl-p.methylbenzylamine]	70	70	–
CCC(N)(CC=Cc1ccccc1)c1cccc(C(F)(F)F)c1 (stereo not drawn) [Example 7, a-cinnamyl-a-ethyl-(m.trifluoromethyl)benzylamine]	100	–	–

Structure (SMILES)	responders at 50 mg/kg [1] [%]	responders at 100 mg/kg [2] [%]	further results
CCC(N)(CC=Cc1ccccc1)c1ccc(OC)cc1 (stereo not drawn) [Example 8, a-cinnamyl-a-ethyl-p.metoxybenzylamine]	80	–	–
CC(N)(CC=Cc1ccc(Cl)c(Cl)c1)c1ccccc1 (stereo not drawn) [Example 9, a-(3',4'-dichloro) cinnamyl-a-methylbenzylamine]	100	–	–
CCC(N)(CC=Cc1ccc(Cl)c(Cl)c1)c1ccccc1 (stereo not drawn) [Example 10, a-(3',4'-dichloro) cinnamyl-a-ethyl-benzylamine]	90	–	–
CC(C)C(N)(CC=Cc1ccc(Cl)c(Cl)c1)c1ccccc1 (stereo not drawn) [Example 11, a-(3',4'-dichloro)cinnamyl-a-isopropylbenzylamine]	70	100	–
CCC(N)(CC=Cc1ccc(Cl)c(Cl)c1)c1ccc(C)cc1 (stereo not drawn) [Example 12, a-(3',4'-dichloro)cinnamyl-a-ethyl-p.methylbenzylamine]	–	–	ED50 (ip, read-out: i.p.: DE50): 37.3 mg/kg; ED50 (po, read-out: p.o.: DE50): 50 mg/kg
CCC(N)(CC=Cc1ccc(Cl)c(Cl)c1)c1ccc(OC)cc1 (stereo not drawn) [Example 13]	–	50	ED50 (ip, read-out: i.p.: DE50): 23.2 mg/kg
CCC(N)(CC=Cc1ccc(Cl)c(Cl)c1)c1cccc(C(F)(F)F)c1 (stereo not drawn) [Example 15, a-(3',4'-dichloro)cinnamyl-a-ethyl-m.trifluoromethylbenzylamin]	–	–	ED50 (ip, read-out: i.p.: DE50): > 25 mg/kg
CCC(CC=Cc1ccccc1)(NC)c1ccccc1 (stereo not drawn) [Example 18, a-cinnamyl-a-ether-N-methyl-benzylamine]	80	100	–
CCC(CC=Cc1ccccc1)(NC)c1ccc(Cl)c(Cl)c1 (stereo not drawn) [Example 20, a-cinnamyl-a-ethyl-N-methyl-3,4-dichlorobenzylamine]	–	80	–
CCC(CC=Cc1ccccc1)(NC)c1cccc(C(F)(F)F)c1 (stereo not drawn) [Example 21, a-cinnamyl-a-ethyl-N-methyl-(m.trifluoromethyl)benzylamine]	90	70	–
CCC(CC=Cc1ccccc1)(NC)c1ccc(OC)cc1 (stereo not drawn) [Example 22, a-cinnamyl-a-ethyl-N-methyl-p.methoxybenzylamine]	80	100	–
CCC(CC=Cc1ccccc1)(c1ccccc1)N(C)C (stereo not drawn) [Example 30, a-cinnamyl-N,N-dimethyl-a-ethyl-benzylamine]	100	100	–
CCC(CC=Cc1ccccc1)(c1ccc(Cl)c(Cl)c1)N(C)C (stereo not drawn) [Example 32, a-cinnamyl-N,N-dimethyl-a-ethyl-(3,4-dichloro)benzylamine]	50	60	–
CCC(CC=Cc1ccccc1)(c1ccc(C(F)(F)F)cc1)N(C)C (stereo not drawn) [Example 34, a-cinnamyl-N,N-dimethyl-a-ethyl-p.trifluoromethylbenzylamine]	80	60	–
C=CCN(C)C(CC)(CC=Cc1ccccc1)c1ccccc1 (stereo not drawn) [Example 38, N-allyl-a-cinnamyl-a-ethyl-N-methylbenzylamine]	80	–	–
CN(C)C(C)(CC=Cc1ccccc1)c1ccccc1 (stereo not drawn) [Example 40, a-cinnamyl-N,N-dimethyl-a-methyl-benzylamine]	–	–	ED50 (ip, read-out: i.p.: DE50): 16.6 mg/kg; ED50 (po, read-out: p.o.: DE50): 37.7 mg/kg
CC(C)C(CC=Cc1ccccc1)(c1ccccc1)N(C)C (stereo not drawn) [Example 41, a-cinnamyl-N,N-dimethyl-a-isopropylbenzylamine]	–	–	ED50 (po, read-out: p.o.: DE50): 78.4 mg/kg
